Measured values published in the supplement of paper PMC3974653.
Structures can show the parent of a compound that is named as a salt.

Tested on: MTT (mouse pheochromocytoma)
Assay: IC50 of cell viability (ATP content)
Settings: (24 or 48 h)
Procedure, shortened: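 CellTiter-Glo ATP luminescence, read after 15 minutes, was used to assess MTT mouse pheochromocytoma cells treated for 24 or 48 hrs with library compounds (final 0.5 nM to 46 µM, 8 concentrations). The cells had been plated at 5 µl of 200,000 cells/ml per well in white 1536-well plates in DMEM with 5% FBS and 1% horse serum and cultured overnight at 37°C, 5% CO2. Normalisation set positive-control wells to 100% and DMSO wells to 0%. The IC50 was then determined by four-parameter logistic fitting.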

IC50 of cell viability	SMILES
> 46 µM	CCCNC(C)(C)COC(=O)c1ccccc1 [Meprylcaine hydrochloride]
> 46 µM	C[C@H](O)[C@H]1[C@@H]2[C@@H](C)\C(=C(/N2C1=O)C(O)=O)S[C@@H]3CN[C@H](C3)C(=O)N(C)C [Meropenem]
> 46 µM	Nc1ccc(O)c(C(=O)O)c1 [Mesalamine]
> 46 µM	CC(C)NC[C@H](O)c1cc(O)cc(O)c1 [Metaproterenol sulfate, orciprenaline sulfate]
> 46 µM	C[C@H](N)[C@H](O)c1cccc(O)c1.O=C(O)[C@@H](O)[C@@H](O)C(=O)O.O=C(O)[C@@H](O)[C@@H](O)C(=O)O [Metaraminol bitartrate]
> 46 µM	O=C(NNCNNC(=O)c1ccncc1)c1ccncc1 [Metazida]
> 46 µM	CN(C)C(=N)NC(=N)N [Metformin hydrochloride]
> 46 µM	CC(=O)O[C@@H](C)C[N+](C)(C)C [Methacholine chloride]
> 46 µM	CN(C)[C@H]\1[C@@H]2[C@@H](O)[C@@H]\3C(=C)C4=C(C(=CC=C4)O)C(=O)C3=C(\O)[C@@]2(O)C(=O)\C(=C1O)C(N)=O [Methacycline hydrochloride]
> 46 µM	CO [Methanol]
> 46 µM	CC[N+](C)(CC)CCOC(=O)C1c2ccccc2Oc2ccccc21 [Methantheline bromide]
> 46 µM	CC(=O)/N=c1/sc([S+](N)(=O)[O-])nn1C [Methazolamide]
> 46 µM	Cn1ccnc1S [Methimazole]
> 46 µM	COc1ccccc1OC[C@H](O)COC(N)=O [Methocarbamol]
> 46 µM	COc1ccc2c(c1)N(C[C@@H](C)CN(C)C)c1ccccc1S2 [Methotrimeprazine maleat salt]
> 46 µM	COC1=C2OC(=O)\C=C/C2=CC3=C1OC=C3 [Methoxsalen]
> 46 µM	CN1C(=O)CC(C)(c2ccccc2)C1=O (centres undefined) [Methsuximide]
> 46 µM	COC(C)=O [Methyl acetate]
> 46 µM	COC(=O)c1ccccc1O [Methyl salicylate]
> 46 µM	Cc1cc(C(C)(C)CC(C)(C)C)ccc1OCCOCC[N+](C)(C)Cc1ccccc1 [Methylbenzethonium chloride]
> 46 µM	C[C@](N)(Cc1ccc(O)c(O)c1)C(=O)O [Methyldopa sesquihydrate]
> 46 µM	COC(=O)c1ccc(O)cc1 [Methylparaben]
> 46 µM	CC(=O)OCC(=O)[C@@]1(O)CCC2C3C[C@H](C)C4=CC(=O)C=CC4(C)C3C(O)CC21C (some centres undefined) [Methylprednisolone acetate]
> 46 µM	C[C@H]\1C[C@H]2[C@H]3CC[C@](O)(C(=O)CO)[C@]3(C)C[C@@H](O)[C@@H]2[C@]4(C)\C=C/C(=O)/C=C14 [Methylprednisolone, 6-alpha]
> 46 µM	Cc1cc2c(cc1[S+](N)(=O)[O-])[S+](=O)([O-])CCC2 [Meticrane]
> 46 µM	CC(=O)Oc1c(C)cc(OCC(O)CNC(C)C)c(C)c1C (centres undefined) [Metipranolol]
> 46 µM	CN1CCC[C@H](CC2c3ccccc3Sc3ccccc32)C1 [Metixene hydrochloride]
> 46 µM	COc1ccc(/C=C/C(=O)c2ccc(OC)cc2OC)cc1 [Metochalcone]

IC50 of cell viability	SMILES
> 46 µM	Cc1ccccc1N1C(=O)c2cc([S+](N)(=O)[O-])c(Cl)cc2NC1C (centres undefined) [Metolazone]
> 46 µM	COC1=CC=C2[N]3CCN(C)\C4=N\CCC(=C34)C2=C1 [Metralindole]
> 46 µM	Cc1ccccc1CNc1ncnc2c1ncn2C1OC(CO)C(O)C1O (centres undefined) [Metrifudil]
> 46 µM	CC(=O)Nc1c(I)c(C(=O)N[C@H]2[C@H](O)[C@H](O)[C@H](CO)O[C@@H]2O)c(I)c(N(C)C(C)=O)c1I [Metrizamide]
> 46 µM	CC(C)(C(=O)c1cccnc1)c1cccnc1 [Metyrapone]
> 46 µM	C[C@](N)(Cc1ccc(O)cc1)C(=O)O [Metyrosine]
> 46 µM	COc1ccc(C(=O)c2ccc(C)cc2)c(O)c1 [Mexenone]
> 46 µM	Cc1cccc(C)c1OCC(C)N.Cl (centres undefined) [Mexiletene hydrochloride]
> 46 µM	Clc1ccc(CO[C@@H](Cn2ccnc2)c2ccc(Cl)cc2Cl)c(Cl)c1 [Miconazole]
> 46 µM	CNC[C@@H]1CC[C@@H](N)[C@@H](O[C@H]2[C@H](O)[C@@H](O[C@H]3OC[C@](C)(O)[C@H](NC)[C@H]3O)[C@H](N)C[C@@H]2N)O1 [Micronomicin sulfate]
> 46 µM	CCC(=O)O[C@@H]1[C@H](C)O[C@@H](O[C@H]2[C@@H](N(C)C)[C@@H](O)[C@H](O[C@H]3[C@H](CC=O)C[C@@H](C)[C@@H](O)/C=C\C=C/C[C@@H](C)OC(=O)C[C@@H](OC(=O)CC)[C@H]3OC)O[C@H]2C)C[C@]1(C)O [Midecamycin]
> 46 µM	COc1ccc(OC)c([C@H](O)CNC(=O)CN)c1 [Midodrine hydrochloride]
> 46 µM	Cc1[nH]c(=O)c(C#N)cc1-c1ccncc1 [Milrinone]
> 46 µM	C\C1=C(\C=C(\C#N)C(=O)N1)C2=CC=NC=C2 [Milrinone]
> 46 µM	CN(C)c1ccc(O)c2c1CC1CC3C(N(C)C)C(=O)C(C(N)=O)C(=O)C3(O)C(=O)C1C2=O (centres undefined) [Minocycline]
> 46 µM	O=P(O)(O)C(O)(Cc1cnc2ccccn12)P(=O)(O)O [Minodronic acid]
> 46 µM	CCCCCCCCCCCCCCCCCCNC(=O)OC1CCN(C(=O)OC[C@H](COC(=O)N(Cc2cccc[n+]2CC)C(=O)c2ccccc2OC)OC)CC1 [Minopafant]
> 46 µM	CN1CCN2c3ncccc3Cc3ccccc3C2C1 (centres undefined) [Mirtazapine]
> 46 µM	CCCCC(C)(O)C/C=C/[C@H]1[C@H](O)CC(=O)[C@@H]1CCCCCCC(=O)OC (some centres undefined) [Misoprostol]
> 46 µM	Clc1ccc(C(c2ccccc2Cl)C(Cl)Cl)cc1 (centres undefined) [Mitotane]
> 46 µM	COc1cc2c(cc1OC)[C@@H](Cc1cc(OC)c(OC)c(OC)c1)[N@+](C)(CCCOC(=O)CC/C=C/CCC(=O)OCCC[N@+]1(C)CCc3cc(OC)c(OC)cc3[C@H]1Cc1cc(OC)c(OC)c(OC)c1)CC2 [Mivacurium]
> 46 µM	NC(=O)c1ncn([C@@H]2O[C@H](CO)[C@@H](O)[C@H]2O)c1O [Mizoribine]
> 46 µM	O=C(NCCN1CCOCC1)c1ccc(Cl)cc1 [Moclobemide]
> 46 µM	CCc1c(C)[nH]c2c1C(=O)[C@H](CN1CCOCC1)CC2 [Molindone hydrochloride]
> 46 µM	COc1ccc(C(=O)N2CCN(CC(=O)N3CCOCC3)CC2)cc1 [Molracetam]
> 46 µM	CCOC(=O)[N-]c1c[n+](N2CCOCC2)no1 [Molsidomine]
> 46 µM	C[C@H]1C[C@H]2[C@H]3CC\C4=C\C(=O)\C=C/[C@@]4(C)[C@@]3(Cl)[C@@H](O)C[C@]2(C)[C@]1(OC(=O)C5=CC=CO5)C(=O)CCl [Mometasone furoate]

SMILES	IC50 of cell viability
CCCC(C)(COC(N)=O)COC(N)=O [Meprobamate]	> 46 µM
CC[C@]1(c2cccc(O)c2)CCCCN(C)C1 [Meptazinol hydrochloride]	> 46 µM
c1ccc2c(c1)Sc1ccccc1N2CC1CN2CCC1CC2 (centres undefined) [Mequitazine]	> 46 µM
O.O.O.[Na+].[Na+].O[Hg]C1=C2OC/3=C/C(=O)/C(=C\C3=C(\C2=CC(=C1[O-])Br)C4=C(C=CC=C4)C([O-])=O)Br [Merbromin]	> 46 µM
COc1cc(CCN)cc(OC)c1OC [Mescaline]	> 46 µM
C[S+](=O)([O-])c1ccc(C(=O)C2C(=O)CCCC2=O)c([N+](=O)[O-])c1 [Mesotrione]	> 46 µM
CC12CCC(=O)CC1CCC1C2CCC2(C)C1CCC2(C)O (centres undefined) [Mestanolone]	> 46 µM
C[C@]12C=CC(=O)C=C1CC[C@@H]1[C@@H]2CC[C@@]2(C)[C@H]1CC[C@]2(C)O [Metandienona]	> 46 µM
CC1=CC=CC=C1N2\C(=N/C3=CC=CC=C3C2=O)C [Methaqualone]	> 46 µM
COC/1=N/N(CS[P](=S)(OC)OC)C(=O)S1 [Methidathion]	> 46 µM
COC(C)(C)CCCC(C)C/C=C/C(C)=C/C(=O)OC(C)C (centres undefined) [Methoprene]	> 46 µM
COc1ccc(C(c2ccc(OC)cc2)C(Cl)(Cl)Cl)cc1 [Methoxychlor]	> 46 µM
CNC(C)Cc1ccccc1OC (centres undefined) [Methoxyphenamine]	> 46 µM
C[N+]1(C)[C@@H]2CC[C@@H]1CC(OC(=O)[C@@H](CO)c1ccccc1)C2.O=[N+]([O-])[O-] (some centres undefined) [Methylatropine nitrate]	> 46 µM
CNC(=O)OCC[N+](C)(C)C.[Cl-] [Methylcarbamylcholine chloride]	> 46 µM
C#CC(C)(O)CC (centres undefined) [Methylpentynolum]	> 46 µM
COC(=O)C(c1ccccc1)C1CCCCN1.[Cl-].[H+] (centres undefined) [Methylphenidate hydrochloride]	> 46 µM
CCC1([C@@H]2O[C@@H]([C@@H]3O[C@](O)(CO)[C@@H](C)C[C@H]3C)C[C@H]2C)CC[C@H]([C@]2(C)CC[C@]3(C[C@@H](O)[C@@H](C)[C@H]([C@H](C)[C@H](OC)[C@H](C)C(=O)[O-])O3)O2)O1.[Na+] (some centres undefined) [Monensin sodium salt]	> 46 µM
CCCCC(CC)COC(=O)c1ccccc1C(=O)O (centres undefined) [Mono(2-ethylhexyl) phthalate]	> 46 µM
